Measurements from ChEMBL document CHEMBL3046080, “Synthesis of imidazole-derived steroidal hybrids as potent aromatase inhibitors” (Med Chem Res, 2013).
pIC50: −log10 of the molar value.

How the values were obtained:
Aromatase = target: T1, Aromatase (Homo sapiens, UniProt P11511); set-up: species or system Placenta, Microsome
T1 sequence (P11511 whole entry): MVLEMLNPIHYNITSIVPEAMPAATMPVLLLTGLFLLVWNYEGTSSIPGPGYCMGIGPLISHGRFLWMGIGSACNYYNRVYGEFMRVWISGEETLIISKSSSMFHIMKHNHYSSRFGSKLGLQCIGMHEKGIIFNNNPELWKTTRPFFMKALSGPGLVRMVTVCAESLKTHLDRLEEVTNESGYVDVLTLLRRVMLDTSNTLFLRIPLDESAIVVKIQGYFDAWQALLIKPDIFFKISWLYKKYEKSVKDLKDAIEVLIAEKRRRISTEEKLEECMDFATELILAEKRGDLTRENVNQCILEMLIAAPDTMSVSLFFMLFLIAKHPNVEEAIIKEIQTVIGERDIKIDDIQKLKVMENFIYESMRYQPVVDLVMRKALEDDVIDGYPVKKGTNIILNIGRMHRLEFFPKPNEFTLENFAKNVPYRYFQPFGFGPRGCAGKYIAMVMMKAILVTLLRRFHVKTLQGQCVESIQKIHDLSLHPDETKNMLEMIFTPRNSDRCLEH
Description: Inhibition of aromatase in Homo sapiens (human) placental microsome assessed as tritiated H2O release from [1-beta-3H] androstenedione substrate preincubated with substrate for 5 min prior to enzyme addition measured after 20 min by beta-scintillation counting analysis

aromatase (CYP19) [1] = target: T2, aromatase (CYP19) (Homo sapiens, UniProt P11511); assay: Inhibition of aromatase in Homo sapiens (human) placental microsome assessed as tritiated H2O release from [1-beta-3H] androstenedione substrate at 36 uM preincubated with substrate for 5 min prior to enzyme addition measured after 20 min by beta-scintillation counting analysis; set-up: species or system Placenta; details: placental microsomes, probe [1-beta-3H] androstenedione
T2 sequence (P11511 whole entry): T1 sequence (P11511 whole entry)

aromatase (CYP19) [2] = target: T2, aromatase (CYP19); assay: Inhibition of aromatase in Homo sapiens (human) placental microsome assessed as tritiated H2O release from [1-beta-3H] androstenedione substrate at 5 uM preincubated with substrate for 5 min prior to enzyme addition measured after 20 min by beta-scintillation counting analysis; set-up: species or system Placenta; details: placental microsomes, probe [1-beta-3H] androstenedione

Compound: C[C@]12CCC(=O)C=C1CC[C@@H]1[C@@H]2CC[C@]2(C)C(=O)/C(=C/c3ccc(OCCCn4ccnc4)cc3)C[C@@H]12
- pIC50 (Aromatase): 4.92

Compound: CC(=O)O[C@H]1CC[C@@]2(C)C(=CC[C@@H]3[C@@H]2CC[C@]2(C)C(=O)/C(=C/c4cccc(OCCCn5ccnc5)c4)C[C@@H]32)C1
- inhibition at 20 min, 36 µM (aromatase (CYP19) [1]): 38%

Compound: C[C@]12CC[C@H](O)CC1=CC[C@@H]1[C@@H]2CC[C@]2(C)C(=O)/C(=C/c3ccc(OCCCCl)cc3)C[C@@H]12
- inhibition at 20 min, 5 µM (aromatase (CYP19) [2]): 0.2%

Compound: C[C@]12CC[C@H](O)CC1=CC[C@@H]1[C@@H]2CC[C@]2(C)C(=O)/C(=C/c3cccc(OCCCn4ccnc4)c3)C[C@@H]12
- inhibition at 20 min, 36 µM (aromatase (CYP19) [1]): 34%

Compound: CC(=O)O[C@H]1CC[C@@]2(C)C(=CC[C@H]3[C@@H]4C/C(=C\c5cccc(OCCCn6ccnc6)c5)[C@H](OC(C)=O)[C@@]4(C)CC[C@@H]32)C1
- inhibition at 20 min, 36 µM (aromatase (CYP19) [1]): 34%

Compound: C[C@]12CC[C@H]3[C@@H](CC=C4C[C@@H](O)CC[C@@]43C)[C@@H]1C/C(=C\c1cccc(OCCCn3ccnc3)c1)[C@@H]2O
- pIC50 (Aromatase): 5.04

Compound: C[C@]12CC[C@H](O)CC1=CC[C@@H]1[C@@H]2CC[C@]2(C)C(=O)/C(=C/c3ccc(OCCCn4ccnc4)cc3)C[C@@H]12
- inhibition at 20 min, 5 µM (aromatase (CYP19) [2]): 4.1%
